Literature values as cited in patent publication US11278512B2, “Compositions comprising a metal and L-serine, and uses thereof” (Brain Chemistry Labs, priority 2019, dated 2022).

What was measured:
[1] = tested on: neurofibrillary tangles (NFTs) and β-amyloid plaques
[2] = tested on: human neuroproteins
[3] = parameters: reduction in ALSFRS (Amyotrophic Lateral Sclerosis Functional Rating Scale): dose or concentration left out as unconfirmed

| Structure (SMILES) | BMAA-induced microglial activation and proteinopathies along the spine, including deposition of TDP-43 and FUS ([1]; BMAA-induced) | density of neurofibrillary tangles (NFTs) and β-amyloid plaques in the brain ([1]; non-human primates) | misincorporation of BMAA into human neuroproteins; protein misfolding, aggregation and apoptosis induced by BMAA [2] | reduction in ALSFRS (Amyotrophic Lateral Sclerosis Functional Rating Scale) ([3]; daily dosing with for three months, approximates the reduction achieved by Riluzole) | safety when administered to ALS patients ([3]; up to 90 mg/day) |
| --- | --- | --- | --- | --- | --- |
| N[C@@H](CO)C(=O)O [L-serine] | blocks | decreases the density | blocks misincorporation |  |  |
| [Zn] [Zinc, zinc] |  |  |  | ~30% | safe |
